From patent US20210114975A1, “THERAPEUTIC COMPOUND AND METHODS” (Regents of the University of Minnesota, priority 2019, published 2021)

Columns and labels:
Assay type in all cases: cell-based
[1] = system: 4T1 breast cancer cell line; assay: Inhibition of pyruvate-driven respiration in permeabilized cells (Seahorse XFe96); details: varying concentrations
[2] = system: MCT1 expressing WiDr cell line; assay: Mitochondrial stress test (Seahorse XFe96); details: vs DMSO control
Experimental: (§1) The metabolic profile of compound 1 was evaluated via mitochondrial stress test (MST) and glycolytic stress test (GST) on MCT4 expressing MDA-MB-231 and MCT1 expressing WiDr cell lines using Seahorse XFe96® analyzer (FIGS. 1A and 1B). 20,000 cells/well were seeded in 96-well microplates. MST was performed according to the manufacturer's protocol. The mitochondrial parameters: maximal respiration, ATP production, proton leak and spare respiratory capacity were calculated using wave software. DMSO was used as the negative control. A concentration study was performed in MDA-MB-231 cell line using compound 1 at 100, 50 and 30 μM concentrations. […] GST was also performed according to the manufacturer's protocol. The glycolytic parameters: glycolysis, glycolytic capacity, and glycolytic reserve were calculated using wave software, with DMSO as a negative control. In this case also, a concentration study was carried out at 100, 50 and 30 μM in MDA-MB-231 cell line.

[3] = system: MCT4 expressing MDA-MB-231 cell line; assay: Mitochondrial stress test (Seahorse XFe96); details: 100, 50 and 30 μM, vs DMSO control
Experimental: as §1

[4] = system: MCT4 expressing MDA-MB-231 cell line; assay: Glycolysis stress test (Seahorse XFe96); details: 100, 50 and 30 μM, vs DMSO control
Experimental: as §1

COc1cc(N(c2ccc(F)cc2)c2ccc(F)cc2)ccc1/C=C(\C#N)C(=O)O [Compound 2, (E)-3-(4-(bis(4-fluorophenyl)amino)-2-methoxyphenyl)-2-cyanoacrylic Acid]
oxygen consumption rate (OCR) after compound injection ([1]; intact 4T1 cells, before rPFO): Acute decreases in OCR were observed | inhibition of pyruvate-driven respiration ([1]; rPFO-permeabilized 4T1 cells, FCCP-stimulated pyruvate/malate/DCA): inhibited pyruvate-driven respiration in permeabilized cells in a dose dependent fashion

N#C/C(=C\c1ccc(N(c2ccc(F)cc2)c2ccc(F)cc2)cc1)C(=O)O [Compound 1, (E)-3-(4-(bis(4-fluorophenyl)amino)phenyl)-2-cyanoacrylic Acid]
ATP production [2]: significantly decreased | maximal respiration [2]: significantly decreased | spare respiratory capacity [2]: significantly decreased | ATP production [3]: significantly decreased | maximal respiration [3]: significantly decreased | spare respiratory capacity [3]: significantly decreased | glycolytic capacity [4]: significantly decreased | glycolytic reserve [4]: significantly decreased
